Data: patent US12421249B2, “Inhibitors of APOL1 and methods of using same” (Vertex Pharmaceuticals Incorporated, priority 2020, dated 2025)
pIC50: −log10 of the molar value.

Columns and labels:
APOL1 G1 = target: T1, APOL1 G1 (Homo sapiens, UniProt O14791, I384M/S342G); assay: Trypanosoma brucei brucei Lysis Assay Using APOL1 Recombinant Protein (AlamarBlue viability readout); format: cell-based; settings: Trypanosome Assay; for pIC50: IP50 = IC50 for cell proliferation, read-out: Trypanosome Assay IP50; for Emax: read-out: Trypanosome Assay Max Activity (%)
T1 sequence (O14791 28-398 S342G/I384M): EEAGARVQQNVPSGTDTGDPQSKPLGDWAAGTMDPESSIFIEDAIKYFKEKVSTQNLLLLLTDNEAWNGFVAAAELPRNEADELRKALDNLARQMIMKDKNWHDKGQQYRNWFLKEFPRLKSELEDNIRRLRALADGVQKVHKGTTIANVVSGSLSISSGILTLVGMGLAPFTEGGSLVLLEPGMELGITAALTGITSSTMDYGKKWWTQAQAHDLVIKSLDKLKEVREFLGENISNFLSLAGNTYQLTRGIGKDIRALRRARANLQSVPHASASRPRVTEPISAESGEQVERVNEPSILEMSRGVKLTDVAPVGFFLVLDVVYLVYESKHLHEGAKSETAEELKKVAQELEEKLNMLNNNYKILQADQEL
Text: Trypanosoma brucei brucei is a blood stream parasite to which human, gorillas, and baboons are immune due to the presence of the APOL1 protein in their HDL particles. The protein is uptaken by the parasite via the TbHpHb receptor located in its flagellar pocket and is bonded by the Hpr protein contained in the HDL particles which triggers the receptor endocytosis by the parasite.
Following endocytosis, the formed vesicle containing the HDL particle matures from early to late endosome, and subsequently to lysosome. The concomitant pH change in the lumen of the vesicle triggers the insertion of the APOL1 protein into the membrane of the late endosome/lysosome and hereby triggers lysosomal membrane permeabilization and as a further downstream event, trypanosome lysis. Trypanosoma brucei brucei is sensitive to lysis by all three APOL1 variants (G0, G1, and G2).
The Trypanosoma brucei brucei lysis assay is a lysis assay of the parasite using recombinant APOL1 protein variant followed by a fluorescent detection method of viability by the addition of AlamarBlue reagent to the assay well, a general metabolic redox indicator (AlamarBlue assay).
Briefly, the AlamarBlue active compound, resazurin, a blue, water soluble, non-toxic and cell permeable molecule, which can be followed by absorbance, is reduced by various metabolic pathways into resorufin, a red compound which can be followed by either absorbance or fluorescence. The assay allows the calculation of the percent viability (percent of living Trypanosomes remaining in each well) at the end of a lysis relative to the untreated condition by interpolation of fluorescent values (FLU) on a standard curve with a known amount of seeded trypanosome/well.
Trypanosoma brucei brucei (ATCC, Cat. No. PRA-382)
• Lister 427 VSG 221 bloodstream form.
Equipment • E1-Clip Tip pipette 12 channel adjustable 2-125 μL, Cat. No. 4672070BT • ThermoFisher MultiDrop 384, Cat. No. 5840300 • Multidrop • Agilent Bravo, Cat. No. G5409A • Bravo • SpectraMax M5 Assay Ready Plates (ARPs) • ARPs comes in two formats: • […] final top concentration with a 2.5 fold dilution down. • […] final top concentration with a 3 fold dilution down. • Both have a 10 point Dose response. • 0.1% DMSO final in the Black Assay Plate. • Compounds are diluted 1000 fold in the Black Assay Plate. • Each plate is designed for 14 compounds in duplicate. • In the final Black Assay Plate: • Column 1: Media only (no APOL1) (100% viable) • Column 2-23: 0.05 μg/mL APOL1 (˜EC90) (10% viable with APOL1) • Column 24: 0.1 μg/mL APOL1 (EC100) (Approx. […] Step 2, Day 4 • Centrifuge at 800×g for 5 minutes at room temperature. • Resuspend in 1 mL media. • Make a 1:25 fold dilution (10 μL/240 μL media). • Count on a hemocytometer (after adding parasites). • Let sit for 1-2 minutes for the parasites to settle. • Count should be approximately 100 viable motile parasites/16 grid or approximately 25×10^6 parasites/flask. • Passage the parasites by adding 1×10^6 parasites/T75 flask in 20 mL media. • Passage the parasites by adding 2.33×10^6 parasites/T175 flask in 46.6 mL media. • For every T75 flask should make enough for approximately 1.5×384 well assay plates. • For every T175 flask should make enough for approximately 3.8×384 well assay plates. Step 3, Day 6 • Centrifuge at 800×g for 5 minutes. • Resuspend in 3 mL assay media (No phenol red, no FBS) per 75 starting flask. • Resuspend in 7 mL assay media (No phenol red, no FBS) per 175 flask • Make a 1:25 fold dilution. • Count by hemocytometer. • Every T75 flask set up should have approximately 75×10^6 parasites/flask (verify doubling time=8.7 hours±1 hour). • Every T175 flask set up should have approximately 175×10^6 parasites/flask (verify doubling time=8.7 hours±1 hour). • Require 46×10^6 parasites per 384 well plate (at 120,000 parasites per well). […]

APOL1 = target: T2, APOL1 (Homo sapiens, UniProt O14791); assay: Multi-Tox Assay (MultiTox-Fluor Multiplex Cytotoxicity Assay in tet-inducible APOL1 T-REx-HEK293 cells; Table 46 does not say which APOL1 variant G0/G1/G2); format: cell-based; settings: IP50 = IC50 for cell proliferation, APOL1 variant not given
T2 sequence (O14791 1-398 S342G/I384M): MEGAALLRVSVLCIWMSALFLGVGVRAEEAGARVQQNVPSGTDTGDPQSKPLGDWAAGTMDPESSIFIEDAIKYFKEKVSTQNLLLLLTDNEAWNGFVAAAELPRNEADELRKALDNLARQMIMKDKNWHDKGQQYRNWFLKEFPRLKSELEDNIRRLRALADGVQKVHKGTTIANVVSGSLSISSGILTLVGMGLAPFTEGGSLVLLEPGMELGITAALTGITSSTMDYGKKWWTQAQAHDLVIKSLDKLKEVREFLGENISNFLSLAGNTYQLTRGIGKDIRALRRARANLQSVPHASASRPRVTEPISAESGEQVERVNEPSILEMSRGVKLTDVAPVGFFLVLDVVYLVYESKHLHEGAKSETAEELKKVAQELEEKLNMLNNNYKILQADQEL

SMILES	pIC50 (APOL1 G1)	Emax (APOL1 G1)	pIC50 (APOL1)
COc1ccc([C@@H]2C[C@]3(C[C@H](C)N2)OCCc2cc(Cl)sc23)cc1C#N (racemic) [Compound 62]	> 7.30	95%	> 7.30
C[C@H]1C[C@@]2(C[C@@H](c3cnc(C(N)=O)cn3)N1)OCCc1cc(Cl)sc12 (racemic) [Compound 63]	> 7.30	104%	> 7.30
Cc1cncc([C@@H]2C[C@]3(C[C@H](C)N2)OCCc2cc(Cl)sc23)c1 (racemic) [Compound 64]	> 7.30	–	> 7.30
C[C@H]1C[C@@]2(C[C@@H](c3cnn(-c4ccccc4)c3)N1)OCCc1cc(Cl)sc12 (racemic) [Compound 65]	> 7.30	105%	> 7.30
Cc1cc([C@@H]2C[C@]3(C[C@H](C)N2)OCCc2cc(Cl)sc23)on1 (racemic) [Compound 66]	> 7.30	103%	> 7.30
C[C@H]1C[C@@]2(C[C@@H](c3ccc4cn[nH]c4c3)N1)OCCc1cc(Cl)sc12 (racemic) [Compound 67]	> 7.30	105%	> 7.30
C[C@H]1C[C@@]2(C[C@@H](c3ccc(O)nc3)N1)OCCc1cc(Cl)sc12 (racemic) [Compound 68]	> 7.30	106%	> 7.30
CCOc1ccc([C@@H]2C[C@]3(C[C@H](C)N2)OCCc2cc(Cl)sc23)nc1 (racemic) [Compound 69]	> 7.30	110%	> 7.30
C[C@H]1C[C@@]2(C[C@@H](c3cnc(-c4ccccc4)o3)N1)OCCc1cc(Cl)sc12 (racemic) [Compound 70]	> 7.30	104%	> 7.30
C[C@H]1C[C@@]2(C[C@@H](c3ccc(C(=O)NC4CC4)cc3)N1)OCCc1cc(Cl)sc12 (racemic) [Compound 71]	> 7.30	104%	> 7.30
C[C@H]1C[C@@]2(C[C@@H](c3c[nH]nn3)N1)OCCc1cc(Cl)sc12 (racemic) [Compound 72]	> 7.30	118%	> 7.30
Cc1cc([C@@H]2C[C@]3(C[C@H](C)N2)OCCc2cc(Cl)sc23)[nH]n1 (racemic) [Compound 73]	> 7.30	110%	> 7.30
C[C@H]1C[C@@]2(C[C@@H](c3cn4c(n3)COCC4)N1)OCCc1cc(Cl)sc12 (racemic) [Compound 74]	6.30 to 7.30	110%	> 7.30
C[C@H]1C[C@@]2(C[C@@H](c3cnc(N(C)C)nc3)N1)OCCc1cc(Cl)sc12 (racemic) [Compound 75]	> 7.30	105%	> 7.30
Cc1ccc([C@@H]2C[C@]3(C[C@H](C)N2)OCCc2cc(Cl)sc23)nc1 (racemic) [Compound 77]	> 7.30	110%	> 7.30
